{"source": "patent EP1674470A1", "about": "“Sulfonamido-macrocycles as Tie2 inhibitors” (Schering Aktiengesellschaft, priority 2004, dated 2006)", "test_system": "DU 145", "assay": "Proliferation test (cytotoxicity assay, crystal violet staining)", "assay_type": "cell-based", "details": "Homo sapiens; cytotoxicity assay using the cell line DU 145", "description": "Biological experiment 3: Proliferation test\nTo examine cell toxicity a cell proliferation test were established.\nWith the cell proliferation test different tumour cell lines (e.g. Du 145) can be examined. The cells were dispensed in RPMI 1640 culture medium, supplied with 10 % (v/v) fetal calf serum plus 1 % (v/v) Penicillin/Streptomycin solution at a cell density of 2.000 cell/100µL medium/per well (96well plate). After three hours the cells were washed with PBS (containing calcium and magnesium). 100 µl of culture medium above with 0.1 % (v/v) fetal calf serum was added and cultured at 37°C and 5% CO2-atmosphere. Next day compounds of the present invention diluted in DMSO for appropriate concentrations were added and further 100 µL culture medium 0.5 % (v/v) fetal calf serum. After 5 days cell culturing at 37°C and 5% CO2-atmosphere cells were washed with PBS. 20 µL of glutaraldehyde solution (11 % (v/v)) is added and the cells were slightly shaken at room temperature for 15 min. After that the cell were washed 3 times and dried in the air. 100 µL of crystal violet solution (0.1 % at pH 3.5) were added and the cells were shaken for 30 min. The cells were washed with tap water and air-dried. The colour is dissolved with 100 µL of acetic acid (10 % (v/v)) under strong shaking for 5 min. The absorption was measured at 595 nm wavelength.", "data": [{"compound": "CC(=O)c1ccc(-c2cnc3nc2NCCCNS(=O)(=O)c2cccc(c2)N3)cc1", "note": "[Example Compound 1.2, 1-[4-[4,4-dioxo-4λ^6-thia-2,5,9-triaza-1(2,4)-pyrimidina-3(1,3)-benzenacyclononaphan-1^5-yl]phenyl]ethanone]", "values": [{"measurement": "IC50", "result": "> 1", "unit": "µM"}]}, {"compound": "COC(=O)c1ccc(-c2cnc3nc2NCCCNS(=O)(=O)c2cccc(c2)N3)cc1", "note": "[Example Compound 1.1, methyl 4-[4,4-dioxo-4λ^6-thia-2,5,9-triaza-1(2,4)-pyrimidina-3(1,3)-benzenacyclononaphan-1^5-yl]benzoate]", "values": [{"measurement": "IC50", "result": "> 1", "unit": "µM"}]}, {"compound": "COc1ccc(-c2cnc3nc2NCCCNS(=O)(=O)c2cccc(c2)N3)cc1", "note": "[Example Compound 1.5, 1^5-(4-methoxyphenyl)-4-thia-2,5,9-triaza-1(2,4)-pyrimidina-3(1,3)-benzenacyclononaphane 4,4-dioxide]", "values": [{"measurement": "IC50", "result": "> 1", "unit": "µM"}]}, {"compound": "O=S1(=O)NCCCNc2nc(ncc2-c2ccccc2)Nc2cccc1c2", "note": "[Example Compound 1.3, 1^5-phenyl-4-thia-2,5,9-triaza-1(2,4)-pyrimidina-3(1,3)-benzenacyclononaphane 4,4-dioxide]", "values": [{"measurement": "IC50", "result": "> 1", "unit": "µM"}]}]}
